In ChEMBL document CHEMBL4257494, “Exploring eukaryotic versus prokaryotic ribosomal RNA recognition with aminoglycoside derivatives” (Medchemcomm, 2018):
Activity calls are given as the source filed them. The calls are words filed in the database; no cut-off is given here.

Legend:
[1] = Ratio of IC50 for inhibition of decoding-site of rRNA-mediated protein translation in rabbit reticulocytes to IC50 for inhibition of decoding-site of rRNA-mediated protein translation in Escherichia coli S30 extract; format: cell-based
Bacillus spizizenii = experiment: Antibacterial activity against Bacillus subtilis ATCC 6633 by double-microdilution method; format: functional
[2] = Binding affinity to decoding-site of rRNA in Escherichia coli S30 extract assessed as inhibition of protein translation after 60 mins by coupled transcription/translation assay
Escherichia coli = experiment: Antibacterial activity against Escherichia coli R477/100 by double-microdilution method; format: functional
[3] = Binding affinity to decoding-site of rRNA in rabbit reticulocytes assessed as inhibition of protein translation after 60 mins by coupled transcription/translation assay; format: cell-based, Oryctolagus cuniculus
HEK293 [4] = experiment: Binding affinity to decoding-site of rRNA in HEK293 cells assessed as read through activity at premature termination codon-containing CFTR G452X nonsense mutant gene (unknown origin) expressed in HEK293 cells after 16 hrs by dual luciferase reporter gene assay; format: cell-based; conditions: Homo sapiens
HEK293 [5] = experiment: Binding affinity to decoding-site of rRNA in HEK293 cells assessed as read through activity at premature termination codon-containing PCDH15 R3X nonsense mutant gene (unknown origin) expressed in HEK293 cells after 16 hrs by dual luciferase reporter gene assay; format: cell-based; conditions: Homo sapiens

Structure (SMILES)	Ratio IC50 [1]	MIC (Bacillus spizizenii) [µg/mL]	IC50 [2] [µM]	MIC (Escherichia coli) [µg/mL]	IC50 [3] [µM]	Activity (HEK293 [4])	Activity (HEK293 [5])
C[C@H](N)[C@H]1O[C@H](O[C@@H]2[C@@H](O)[C@H](N)C[C@H](N)[C@H]2O[C@H]2O[C@H](CO)[C@@H](O)[C@H](O)[C@H]2N)[C@H](O)[C@@H]1O.O=S(=O)(O)O	1.3	> 192	2410	> 192	3180	Active	Active
NC[C@H]1O[C@H](O[C@@H]2[C@@H](O)[C@H](N)C[C@H](N)[C@H]2O[C@H]2O[C@@H](C(N)=O)[C@@H](O)[C@H](O)[C@H]2N)[C@H](O)[C@@H]1O.O=S(=O)(O)O	10	83	2		20		
NC[C@H]1O[C@H](O[C@@H]2[C@@H](O)[C@H](N)C[C@H](N)[C@H]2O[C@H]2O[C@@H](C(=O)O)[C@@H](O)[C@H](O)[C@H]2N)[C@H](O)[C@@H]1O.O=S(=O)(O)O	1.2	> 192	420	> 192	500		
N[C@H]1[C@@H](O[C@H]2[C@H](O)[C@@H](O)[C@H](N)C[C@@H]2N)O[C@@H](C(=O)O)[C@@H](O)[C@@H]1O.O=S(=O)(O)O	60	100	0.5		30		
C[C@H](N)[C@H]1O[C@H](O[C@@H]2[C@@H](O)[C@H](N)C[C@H](N)[C@H]2O[C@H]2O[C@@H](C(=O)O)[C@@H](O)[C@H](O)[C@H]2N)[C@H](O)[C@@H]1O.O=S(=O)(O)O	0.5	> 192	1300	> 192	600	inactive	inactive
C[C@H](N)[C@H]1O[C@H](O[C@@H]2[C@@H](O)[C@H](N)C[C@H](N)[C@H]2O[C@H]2O[C@@H](C(N)=O)[C@@H](O)[C@H](O)[C@H]2N)[C@H](O)[C@@H]1O.O=S(=O)(O)O	0.2	> 192	2310	> 192	520	inactive	inactive
N[C@H]1[C@@H](O[C@H]2[C@H](O)[C@@H](O)[C@H](N)C[C@@H]2N)O[C@H](CO)[C@@H](O)[C@@H]1O.O=S(=O)(O)O [PAROMAMINE SULFATE]	80	> 192	10	> 192	800		
NC[C@H]1O[C@H](O[C@@H]2[C@@H](O)[C@H](N)C[C@H](N)[C@H]2O[C@H]2O[C@H](CO)[C@@H](O)[C@H](O)[C@H]2N)[C@H](O)[C@@H]1O.O=S(=O)(O)O	1.5	> 192	2930	> 192	4320	Active	Active
NC(=O)[C@@H]1O[C@H](O[C@H]2[C@H](O)[C@@H](O)[C@H](N)C[C@@H]2N)[C@H](N)[C@@H](O)[C@@H]1O.O=S(=O)(O)O	0.5	> 192	1300	> 192	700		
